Test results: patent US12162858B2, “Quinoline derivatives as inhibitors of AXL/MER RTK and CSF1R” (QURIENT CO., LTD., priority 2018, dated 2024)
Where two headings read alike, the source gives them in different places. Each block holds one compound with its values, some of them ahead of it.

Columns and labels:
CSF1R = CSF1R (Homo sapiens, UniProt P07333); assay: KINOMEscan competition binding assay for CSF1R; parameters: DNA tag for qPCR (not a peptide); host or cells: E. coli/T7 phage or HEK-293
Chain of CSF1R (P07333 20-972): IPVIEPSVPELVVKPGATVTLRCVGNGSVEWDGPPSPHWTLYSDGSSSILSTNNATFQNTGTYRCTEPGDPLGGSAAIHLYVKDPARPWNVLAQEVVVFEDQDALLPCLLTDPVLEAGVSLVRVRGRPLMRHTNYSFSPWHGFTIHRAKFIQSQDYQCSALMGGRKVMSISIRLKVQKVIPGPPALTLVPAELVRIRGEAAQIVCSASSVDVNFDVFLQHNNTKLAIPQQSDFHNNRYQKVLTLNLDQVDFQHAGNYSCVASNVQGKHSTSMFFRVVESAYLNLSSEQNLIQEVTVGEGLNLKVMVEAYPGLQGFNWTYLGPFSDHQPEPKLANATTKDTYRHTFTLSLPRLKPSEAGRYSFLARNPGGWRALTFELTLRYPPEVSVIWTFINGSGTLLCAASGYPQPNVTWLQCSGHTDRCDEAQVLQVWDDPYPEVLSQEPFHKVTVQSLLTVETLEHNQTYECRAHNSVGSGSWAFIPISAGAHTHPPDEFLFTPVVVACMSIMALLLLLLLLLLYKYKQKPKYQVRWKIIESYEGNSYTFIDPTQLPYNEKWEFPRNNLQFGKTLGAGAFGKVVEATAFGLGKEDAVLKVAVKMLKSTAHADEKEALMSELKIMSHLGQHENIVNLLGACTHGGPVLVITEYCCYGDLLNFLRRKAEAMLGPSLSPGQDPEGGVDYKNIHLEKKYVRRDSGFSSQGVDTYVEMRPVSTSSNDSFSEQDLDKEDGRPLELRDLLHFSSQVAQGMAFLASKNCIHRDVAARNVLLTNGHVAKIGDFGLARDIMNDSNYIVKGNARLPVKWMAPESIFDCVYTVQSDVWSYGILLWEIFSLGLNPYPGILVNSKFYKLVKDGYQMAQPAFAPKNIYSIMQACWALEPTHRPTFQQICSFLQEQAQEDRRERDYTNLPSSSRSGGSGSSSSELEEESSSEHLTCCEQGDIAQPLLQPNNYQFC
How it was run: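 Values are either % inhibition at 0.1 uM, relative to DMSO (100% Ctrl) and a control compound (0% Ctrl), or Kd from an 11-point 3-fold series fitted with Hill slope −1. DNA-tagged kinase binds immobilized ligand beads with compound for 1 h at room temperature, and eluted kinase is measured by qPCR.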

Axl = target: T1, Axl (Homo sapiens, UniProt P30530); assay: LanthaScreen Eu kinase binding assay for Axl; details: read-out: Axl kinase binding activity (Kd)
T1 sequence (P30530 26-894): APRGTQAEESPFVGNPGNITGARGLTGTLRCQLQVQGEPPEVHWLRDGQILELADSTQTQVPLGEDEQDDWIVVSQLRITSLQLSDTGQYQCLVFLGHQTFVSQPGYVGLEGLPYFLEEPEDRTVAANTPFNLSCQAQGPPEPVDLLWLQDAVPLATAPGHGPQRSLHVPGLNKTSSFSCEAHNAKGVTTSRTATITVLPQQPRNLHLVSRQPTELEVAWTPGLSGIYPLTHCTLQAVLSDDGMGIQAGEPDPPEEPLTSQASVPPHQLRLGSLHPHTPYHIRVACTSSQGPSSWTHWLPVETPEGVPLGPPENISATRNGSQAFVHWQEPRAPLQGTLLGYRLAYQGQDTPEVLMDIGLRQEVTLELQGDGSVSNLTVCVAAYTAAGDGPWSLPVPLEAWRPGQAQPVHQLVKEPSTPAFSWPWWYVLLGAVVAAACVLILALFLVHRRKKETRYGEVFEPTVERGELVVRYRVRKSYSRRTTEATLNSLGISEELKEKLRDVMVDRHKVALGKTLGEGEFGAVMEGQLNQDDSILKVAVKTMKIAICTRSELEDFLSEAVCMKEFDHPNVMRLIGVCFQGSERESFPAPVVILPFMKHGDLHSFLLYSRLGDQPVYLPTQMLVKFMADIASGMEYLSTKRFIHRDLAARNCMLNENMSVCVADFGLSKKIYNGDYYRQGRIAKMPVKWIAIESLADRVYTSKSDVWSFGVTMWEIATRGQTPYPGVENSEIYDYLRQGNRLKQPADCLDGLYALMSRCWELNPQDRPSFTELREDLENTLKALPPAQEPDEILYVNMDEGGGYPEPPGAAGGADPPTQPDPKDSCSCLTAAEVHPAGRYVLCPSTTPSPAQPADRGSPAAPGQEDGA
How it was run: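 Competitive displacement of Alexa Fluor 647-labeled Tracer 236 from the kinase, with binding detected by TR-FRET with a Eu-labeled anti-GST antibody. Compounds were run as 8-step DMSO serial dilutions and incubated 1 h at room temperature. Kd was calculated relative to DMSO vehicle control wells.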

[1] = read-out: CSF1R kinase binding activity, Percent (%) inhibition
[2] = read-out: CSF1R kinase binding activity, Range

SMILES: COc1cc2nccc(Oc3ccc(NC(=O)c4nn(C5CC5)cc4OCC(F)(F)F)nc3)c2cc1OC [Compound 5]
- inhibition at 0.1 µM (CSF1R; [1]): 97%
- inhibition at 0.1 µM (CSF1R; [2]): ≥ 80%
- Kd (CSF1R; read-out: CSF1R kinase binding activity (Kd)): < 100 nM
- Kd (Axl): < 100 nM

SMILES: COc1cc2nccc(Oc3ccc(NC(=O)c4nn(C5CCOC5)cc4OCC(F)(F)F)c(F)c3)c2cc1OC (stereo not shown) [Compound 77]
- inhibition at 0.1 µM (CSF1R; [1]): 76%
- inhibition at 0.1 µM (CSF1R; [2]): 50 to 80%
- Kd (Axl): < 100 nM

SMILES: COc1cc2nccc(Oc3ccc(NC(=O)c4nn(C5CCNC5)cc4OCC(F)(F)F)cc3F)c2cc1OC (stereo not shown) [Compound 78]
- inhibition at 0.1 µM (CSF1R; [1]): 11%
- inhibition at 0.1 µM (CSF1R; [2]): < 50%
- Kd (Axl): < 100 nM

SMILES: COc1cc2nccc(Oc3ccc(NC(=O)c4nn(C5CCNC5)cc4OCC(F)(F)F)cc3C)c2cc1OC (stereo not shown) [Compound 81]
- inhibition at 0.1 µM (CSF1R; [1]): 46%
- inhibition at 0.1 µM (CSF1R; [2]): < 50%
- Kd (Axl): ≥ 500 nM

SMILES: COc1cc2nccc(Oc3ccc(NC(=O)c4nn(C5CCOC5)cc4OCC(F)(F)F)cc3C)c2cc1OC (stereo not shown) [Compound 85]
- inhibition at 0.1 µM (CSF1R; [1]): 78%
- inhibition at 0.1 µM (CSF1R; [2]): 50 to 80%
- Kd (Axl): < 100 nM

SMILES: COc1cc2nccc(Oc3ccc(NC(=O)c4nn(C5CCOCC5)cc4OCC(F)(F)F)nc3)c2cc1OC [Compound 90]
- inhibition at 0.1 µM (CSF1R; [1]): 95%
- inhibition at 0.1 µM (CSF1R; [2]): ≥ 80%
- Kd (Axl): < 100 nM

SMILES: COc1cc2nccc(Oc3ccc(NC(=O)c4nn(C5CCN(C)C5)cc4OCC(F)(F)F)nc3)c2cc1OC (stereo not shown) [Compound 91]
- inhibition at 0.1 µM (CSF1R; [1]): 99%
- inhibition at 0.1 µM (CSF1R; [2]): ≥ 80%
- Kd (Axl): < 100 nM

SMILES: COc1cc2nccc(Oc3ccc(NC(=O)c4nn(CCC5CCCC5)cc4OCC(F)(F)F)nc3)c2cc1OC [Compound 93]
- inhibition at 0.1 µM (CSF1R; [1]): 89%
- inhibition at 0.1 µM (CSF1R; [2]): ≥ 80%
- Kd (Axl): < 100 nM

SMILES: COc1cc2nccc(Oc3ccc(NC(=O)c4nn(C5CCN(C)C5)cc4OCC(F)(F)F)c(F)c3)c2cc1OC (stereo not shown) [Compound 94]
- inhibition at 0.1 µM (CSF1R; [1]): 65%
- inhibition at 0.1 µM (CSF1R; [2]): 50 to 80%
- Kd (Axl): < 100 nM

Further lines, results first:

- inhibition at 0.1 µM (CSF1R; [1]): 12%
- inhibition at 0.1 µM (CSF1R; [2]): < 50%
- Kd (Axl): < 100 nM
SMILES: COc1cc2nccc(Oc3ccc(NC(=O)c4nn(CCN)cc4OCC(F)(F)F)cc3F)c2cc1OC [Compound 79]

- inhibition at 0.1 µM (CSF1R; [1]): 64%
- inhibition at 0.1 µM (CSF1R; [2]): 50 to 80%
- Kd (Axl): < 100 nM
SMILES: COc1cc2nccc(Oc3ccc(NC(=O)c4nn(CC(C)O)cc4OCC(F)(F)F)cc3F)c2cc1OC (stereo not shown) [Compound 80]

- inhibition at 0.1 µM (CSF1R; [1]): 35%
- inhibition at 0.1 µM (CSF1R; [2]): < 50%
- Kd (Axl): ≥ 500 nM
SMILES: COc1cc2nccc(Oc3ccc(NC(=O)c4nn(CCN)cc4OCC(F)(F)F)cc3C)c2cc1OC [Compound 82]

- inhibition at 0.1 µM (CSF1R; [1]): 97%
- inhibition at 0.1 µM (CSF1R; [2]): ≥ 80%
- Kd (Axl): < 100 nM
SMILES: COc1cc2nccc(Oc3ccc(NC(=O)c4nn(CC(C)O)cc4OCC(F)(F)F)cc3C)c2cc1OC (stereo not shown) [Compound 83]

- inhibition at 0.1 µM (CSF1R; [1]): 97%
- inhibition at 0.1 µM (CSF1R; [2]): ≥ 80%
- Kd (Axl): < 100 nM
SMILES: COCCn1cc(OCC(F)(F)F)c(C(=O)Nc2ccc(Oc3ccnc4cc(OC)c(OC)cc34)c(C)c2)n1 [Compound 84]

- inhibition at 0.1 µM (CSF1R; [1]): 11%
- inhibition at 0.1 µM (CSF1R; [2]): < 50%
- Kd (Axl): 100 to 500 nM
SMILES: COc1cc2nccc(Oc3ccc(NC(=O)c4nn(C5CCNC5)cc4OCC(F)(F)F)cc3)c2cc1OC (stereo not shown) [Compound 86]

- inhibition at 0.1 µM (CSF1R; [1]): 71%
- inhibition at 0.1 µM (CSF1R; [2]): 50 to 80%
- Kd (Axl): < 100 nM
SMILES: COc1cc2nccc(Oc3ccc(NC(=O)c4nn(CC(C)C)cc4OCC(F)(F)F)cc3)c2cc1OC [Compound 87]

- inhibition at 0.1 µM (CSF1R; [1]): 21%
- inhibition at 0.1 µM (CSF1R; [2]): < 50%
- Kd (Axl): 100 to 500 nM
SMILES: COc1cc2nccc(Oc3ccc(NC(=O)c4nn(CCN)cc4OCC(F)(F)F)cc3)c2cc1OC [Compound 88]

- inhibition at 0.1 µM (CSF1R; [1]): 56%
- inhibition at 0.1 µM (CSF1R; [2]): 50 to 80%
- Kd (Axl): < 100 nM
SMILES: COc1cc2nccc(Oc3ccc(NC(=O)c4nn(CC(C)O)cc4OCC(F)(F)F)cc3)c2cc1OC (stereo not shown) [Compound 89]

- inhibition at 0.1 µM (CSF1R; [1]): 61%
- inhibition at 0.1 µM (CSF1R; [2]): 50 to 80%
- Kd (Axl): < 100 nM
SMILES: COc1cc2nccc(Oc3ccc(NC(=O)c4nn(CC5COC5)cc4OCC(F)(F)F)c(F)c3)c2cc1OC [Compound 95]
